Measurements: patent US20170354645A1, “METHODS FOR TREATING KIDNEY DISORDERS” (Eli Lilly and Company, priority 2014, published 2017)

Tests used:
[1] = serum concentration in remnant kidney mice; format: in vivo; settings: 129/SvEv, mouse, week 4 of dosing, 24 hours after a 10 mg/kg oral dose, once daily
Description: (§1) The oral vehicle for testing the compound of Formula I is 5% Kolliphor® HS 15, 5% EtOH, NaCMC 1%/SLS 0.5%/Antifoam 0.05%/Povidone 0.085% from Ricca Chemical Company. The sham group is fed a conventional diet (Purina Formulab Diet 5008) and is not dosed with vehicle or the compound of Formula I during the dosing portion of the study. One of the remaining two groups is orally dosed vehicle once daily (10 ml/kg), and the other group is orally dosed once daily with the compound of Formula I at 10 mg/kg, in vehicle. Both dosing groups receive a conventional diet (Purina Formulab Diet 5008) during the dosing portion of the study.
(§2) Spot urine samples are collected on day −7 prior to the dosing portion of the study. Urine samples are taken weekly during the dosing portion of the study. Body weights are measured on days 15, 29, 43, 57, 64, 71, and 78. Blood samples are taken at week 4 of the dosing portion of the study a well as at the study termination (day 84). At week 4 of the dosing portion of the study, the mean serum concentration of the compound of Formula I 24 hours after a 10 mg/kg dose is 49±66 ng/ml.

[2] = test system: mouse remnant kidney model; assay: mouse remnant kidney model (5/6th nephrectomy) of chronic renal failure; format: in vivo; settings: 10 mg/kg orally once daily
Description: The purpose of this assay is to analyze the compound of Formula I in a mouse chronic renal failure model, and particularly the ability to improve albuminuria and renal histopathological lesions. This assay is known as the mouse remnant kidney model, where following a unilateral nephrectomy, partial surgical removal of approximately ⅓ of the remaining kidney is carried out to replicate chronic renal failure. This model is sometimes also referred to as a “5/6th nephrectomy” model that was originally developed in rat. A description of this model may be found in published US patent application US 2014/0271675 (Qi, et al.) and (Leelahavanichkul, et al. (2010) Kidney Int. 78(11): 1136-1153.
Thirty-five eight to nine week old mice (strain 129/SvEv from Taconic) are employed in the model, and all have surgeries. A sham group having five mice have surgeries where the kidneys are not removed. The mice in the remaining two groups having fifteen mice each undergo remnant surgery. The surgeries take place approximately three weeks prior to the dosing portion of the study. The dosing portion of the study is 85 days long.
as §1, §2

[3] = renal morphology, compared with vehicle treatment

In the case of `Cc1cc(OCc2c(-c3ccccc3OC(F)(F)F)noc2C2CC2)ccc1-c1ccc2c(C(=O)O)csc2c1` [compound of Formula I, 6-{4-[5-Cyclopropyl-3-(2-trifluoromethoxy-phenyl)-isoxazol-4-ylmethoxy]-2-methyl-phenyl}-benzo[b]thiophene-3-carboxylic acid], the concentration at 24 h [1] is reported as 49 ± 66 ng/mL, the “reduction in urine ACR (albumin/creatinine ratio)” value ([2]; remnant mice, observed within 2 weeks, persists through end of 85-day dosing) is reported as 32-38% and the interstitial inflammation ([2]; renal morphology) is reported as “mildly reduced”. The tubular regeneration ([2]; renal morphology) was “mildly reduced”, the “incidence and severity of glumerulosclerosis” value [2, 3] was “notably reduced” and the “incidence and severity of tubular protein” value [2, 3] was “notably reduced”. For the same molecule, the “incidence of tubular changes (dilation, atrophy)” value [2, 3] was “reduced”.
